From US20130101530A1, “ANTIMICROBIAL PRESERVATIVE COMPOSITIONS FOR PERSONAL CARE PRODUCTS” (GALAXY SURFACTANTS LTD., priority 2011, published 2013)
Values after ≈ are worked out from the molar mass of the structure shown. Where two headings read alike, the source gives them in different places.

Legend:
Assay type in all cases: cell-based
[1] = system: Candida albicans ATCC 10231; assay: Minimum inhibitory concentration
[2] = system: Staphylococcus aureus ATCC 6538S; assay: Minimum inhibitory concentration; settings: for MIC: ATCC6538S
[3] = system: Malassezia furfur MTCC 1374; assay: Minimum inhibitory concentration
[4] = system: Pseudomonas aeruginosa Immuno type IV; assay: Minimum inhibitory concentration
[5] = system: Bacillus subtilis ATCC 9372; assay: microbe, parasite or virus in culture; settings: for MIC: ATCC9372
[6] = system: Propionibacterium acnes MTCC 1951; assay: Minimum inhibitory concentration; settings: for MIC: Cutibacterium acnes
[7] = system: Escherichia coli ATCC 10142; assay: Minimum inhibitory concentration
[8] = system: Aspergillus niger ATCC 16404; assay: Minimum inhibitory concentration
[9] = system: all types of microbes (Gram positive, Gram negative bacteria, yeast and mould; the chosen eight organisms); assay: Minimum inhibitory concentration, whole panel
[10] = Bacillus subtilis ATCC 9372, read-out: MINIMUM INHIBITORY CONCENTRATION
[11] = in Preservative Blend No 1 (10:10:80), Bacillus subtilis, read-out: Concentration of individual component at MIC of Preservative Blend No 1

CCCCCCCC(=O)NCC(=O)O [Octanoyl Glycine, N-Octanoyl glycine]
MIC ([1]; ATCC10231, Candida albicans ATCC 10231, read-out: MINIMUM INHIBITORY CONCENTRATION): 4000 µg/mL (≈ 19.9 mM) | MIC ([1]; ATCC10231, in Preservative Blend No 1 (10:10:80), Candida albicans, read-out: Concentration of individual component at MIC of Preservative Blend No 1): 300 µg/mL | MIC ([2]; Staphylococcus aureus ATCC 6538S, read-out: MINIMUM INHIBITORY CONCENTRATION): 3000 µg/mL (≈ 14.9 mM) | MIC ([2]; in Preservative Blend No 1 (10:10:80), Staphylococcus aureus, read-out: Concentration of individual component at MIC of Preservative Blend No 1): 200 µg/mL | MIC ([3]; MTCC1374, Malassezia furfur MTCC 1374, read-out: MINIMUM INHIBITORY CONCENTRATION): 3000 µg/mL (≈ 14.9 mM) | MIC ([3]; MTCC1374, in Preservative Blend No 1 (10:10:80), Malassezia furfur, read-out: Concentration of individual component at MIC of Preservative Blend No 1): 400 µg/mL | MIC ([4]; Pseudomonas aeruginosa Immuno type IV, read-out: MINIMUM INHIBITORY CONCENTRATION): 3000 µg/mL (≈ 14.9 mM) | MIC ([4]; in Preservative Blend No 1 (10:10:80), Pseudomonas aeruginosa, read-out: Concentration of individual component at MIC of Preservative Blend No 1): 200 µg/mL | MIC [5, 10]: 3000 µg/mL (≈ 14.9 mM) | MIC [5, 11]: 200 µg/mL | MIC ([6]; MTCC1951, Propionibacterium acnes MTCC 1951, read-out: MINIMUM INHIBITORY CONCENTRATION): 3000 µg/mL (≈ 14.9 mM) | MIC ([6]; MTCC1951, in Preservative Blend No 1 (10:10:80), Propionibacterium acnes, read-out: Concentration of individual component at MIC of Preservative Blend No 1): 300 µg/mL | MIC ([7]; ATCC10142, Escherichia coli ATCC 10142, read-out: MINIMUM INHIBITORY CONCENTRATION): 3000 µg/mL (≈ 14.9 mM) | MIC ([7]; ATCC10142, in Preservative Blend No 1 (10:10:80), Escherichia coli, read-out: Concentration of individual component at MIC of Preservative Blend No 1): 200 µg/mL | MIC ([8]; ATCC16404; in Preservative Blend No 1 (10:10:80); Aspergillus niger; read-out: Concentration of individual component at MIC of Preservative Blend No 1): 300 µg/mL | MIC ([8]; Aspergillus niger, ATCC16404; read-out: MINIMUM INHIBITORY CONCENTRATION): 4000 µg/mL (≈ 19.9 mM)

C=CCCCCCCCCC(=O)NCCO [Undecylenoyl MEA amide, N-undecylenoyl monoethanol amide]
MINIMUM INHIBITORY CONCENTRATION ([1]; Candida albicans ATCC 10231): >10000 ppm | Concentration of individual component at MIC of Preservative Blend No 1 ([1]; in Preservative Blend No 1 (10:10:80), Candida albicans): 300 ppm | Concentration of individual component at MIC of Preservative Blend No 2 ([1]; in Preservative Blend No 2 (10:10:80), Candida albicans): 200 ppm | MINIMUM INHIBITORY CONCENTRATION ([2]; Staphylococcus aureus ATCC 6538S): >10000 ppm | Concentration of individual component at MIC of Preservative Blend No 1 ([2]; in Preservative Blend No 1 (10:10:80), Staphylococcus aureus): 200 ppm | Concentration of individual component at MIC of Preservative Blend No 2 ([2]; in Preservative Blend No 2 (10:10:80), Staphylococcus aureus): 300 ppm | MINIMUM INHIBITORY CONCENTRATION ([3]; Malassezia furfur MTCC 1374): >10000 ppm | Concentration of individual component at MIC of Preservative Blend No 1 ([3]; in Preservative Blend No 1 (10:10:80), Malassezia furfur): 400 ppm | Concentration of individual component at MIC of Preservative Blend No 2 ([3]; in Preservative Blend No 2 (10:10:80), Malassezia furfur): 400 ppm | MINIMUM INHIBITORY CONCENTRATION ([4]; Pseudomonas aeruginosa Immuno type IV): >10000 ppm | Concentration of individual component at MIC of Preservative Blend No 1 ([4]; in Preservative Blend No 1 (10:10:80), Pseudomonas aeruginosa): 200 ppm | Concentration of individual component at MIC of Preservative Blend No 2 ([4]; in Preservative Blend No 2 (10:10:80), Pseudomonas aeruginosa): 300 ppm | Concentration needed for activity of the ingredient by itself against the broad range of microbes ([9]; ingredient alone, octanoyl glycine tested at neutral pH): > 10000 ppm | Antimicrobial activity of the ingredient alone ([9]; up to 1.0% concentration, bacteria, yeast and mould): does not exhibit any antimicrobial activity | MINIMUM INHIBITORY CONCENTRATION ([5]; Bacillus subtilis ATCC 9372): >10000 ppm | Concentration of individual component at MIC of Preservative Blend No 1 ([5]; in Preservative Blend No 1 (10:10:80), Bacillus subtilis): 200 ppm | Concentration of individual component at MIC of Preservative Blend No 2 ([5]; in Preservative Blend No 2 (10:10:80), Bacillus subtilis): 200 ppm | MINIMUM INHIBITORY CONCENTRATION ([6]; Propionibacterium acnes MTCC 1951): >10000 ppm | Concentration of individual component at MIC of Preservative Blend No 1 ([6]; in Preservative Blend No 1 (10:10:80), Propionibacterium acnes): 300 ppm | Concentration of individual component at MIC of Preservative Blend No 2 ([6]; in Preservative Blend No 2 (10:10:80), Propionibacterium acnes): 200 ppm | MINIMUM INHIBITORY CONCENTRATION ([7]; Escherichia coli ATCC 10142): >10000 ppm | Concentration of individual component at MIC of Preservative Blend No 1 ([7]; in Preservative Blend No 1 (10:10:80), Escherichia coli): 200 ppm | Concentration of individual component at MIC of Preservative Blend No 2 ([7]; in Preservative Blend No 2 (10:10:80), Escherichia coli): 300 ppm | MINIMUM INHIBITORY CONCENTRATION ([8]; Aspergillus niger): >10000 ppm | Concentration of individual component at MIC of Preservative Blend No 1 ([8]; in Preservative Blend No 1 (10:10:80); Aspergillus niger): 300 ppm | Concentration of individual component at MIC of Preservative Blend No 2 ([8]; in Preservative Blend No 2 (10:10:80); Aspergillus niger): 200 ppm

OCCOc1ccccc1 [Phenoxy ethanol, 2-Phenoxy ethanol]
MIC ([1]; Candida albicans, ATCC10231, read-out: Concentration of individual component at MIC of Preservative Blend No 1): 2400 µg/mL | MIC ([1]; Candida albicans, ATCC10231, read-out: Concentration of individual component at MIC of Preservative Blend No 2): 1600 µg/mL | MIC ([1]; Candida albicans, ATCC10231, read-out: MINIMUM INHIBITORY CONCENTRATION): 6000 µg/mL (≈ 43.4 mM) | Concentration enough to kill the organism in combination with components [A] and [B] ([1]; in Preservative Blend No 1, Candida): around 0.25% | MIC ([2]; Staphylococcus aureus, read-out: Concentration of individual component at MIC of Preservative Blend No 1): 1600 µg/mL | MIC ([2]; Staphylococcus aureus, read-out: Concentration of individual component at MIC of Preservative Blend No 2): 2400 µg/mL | MIC ([2]; Staphylococcus aureus, read-out: MINIMUM INHIBITORY CONCENTRATION): 8500 µg/mL (≈ 61.5 mM) | MIC ([3]; Malassezia furfur, MTCC1374, read-out: Concentration of individual component at MIC of Preservative Blend No 1): 3200 µg/mL | MIC ([3]; Malassezia furfur, MTCC1374, read-out: Concentration of individual component at MIC of Preservative Blend No 2): 3200 µg/mL | MIC ([3]; Malassezia furfur, MTCC1374, read-out: MINIMUM INHIBITORY CONCENTRATION): 4000 µg/mL (≈ 29 mM) | MIC ([4]; Pseudomonas aeruginosa, read-out: Concentration of individual component at MIC of Preservative Blend No 1): 1600 µg/mL | MIC ([4]; Pseudomonas aeruginosa, read-out: Concentration of individual component at MIC of Preservative Blend No 2): 2400 µg/mL | MIC ([4]; Pseudomonas aeruginosa, read-out: MINIMUM INHIBITORY CONCENTRATION): 4000 µg/mL (≈ 29 mM) | Activity against yeast and mould ([9]; ingredient alone, Aspergillus and Candida): virtually no activity | Activity against bacteria ([9]; ingredient alone, particularly Gram positive): weak activity | MIC [5, 10]: 4000 µg/mL (≈ 29 mM) | MIC [5, 11]: 1600 µg/mL | MIC ([5]; in Preservative Blend No 2 (10:10:80), Bacillus subtilis, read-out: Concentration of individual component at MIC of Preservative Blend No 2): 1600 µg/mL | MIC ([6]; MTCC1951, read-out: Concentration of individual component at MIC of Preservative Blend No 1): 2400 µg/mL | MIC ([6]; MTCC1951, read-out: Concentration of individual component at MIC of Preservative Blend No 2): 1600 µg/mL | MIC ([6]; MTCC1951, read-out: MINIMUM INHIBITORY CONCENTRATION): 4000 µg/mL (≈ 29 mM) | MIC ([7]; Escherichia coli, ATCC10142, read-out: Concentration of individual component at MIC of Preservative Blend No 1): 1600 µg/mL | MIC ([7]; Escherichia coli, ATCC10142, read-out: Concentration of individual component at MIC of Preservative Blend No 2): 2400 µg/mL | MIC ([7]; Escherichia coli, ATCC10142, read-out: MINIMUM INHIBITORY CONCENTRATION): 6000 µg/mL (≈ 43.4 mM) | MIC ([8]; Aspergillus niger, ATCC16404, read-out: Concentration of individual component at MIC of Preservative Blend No 1): 2400 µg/mL | MIC ([8]; Aspergillus niger, ATCC16404, read-out: Concentration of individual component at MIC of Preservative Blend No 2): 1600 µg/mL | MIC ([8]; Aspergillus niger, ATCC16404, read-out: MINIMUM INHIBITORY CONCENTRATION): 9000 µg/mL (≈ 65.1 mM) | Concentration enough to kill the organism in combination with components [A] and [B] ([8]; in Preservative Blend No 1; Aspergillus): around 0.25%
